Legend:
Assay in all cases: relative viability (nuclei count vs DMSO), 5 days (fraction); higher = more cells survive
Veliparib + Navitoclax = compound: C[C@]1(c2nc3c(C(N)=O)cccc3[nH]2)CCCN1 [Veliparib] + CC1(C)CCC(c2ccc(Cl)cc2)=C(CN2CCN(c3ccc(C(=O)NS(=O)(=O)c4ccc(N[C@H](CCN5CCOCC5)CSc5ccccc5)c(S(=O)(=O)C(F)(F)F)c4)cc3)CC2)C1 [Navitoclax] (partner 0.5 µM)
Method in brief: (§1)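 Relative viability divides the nuclei count in treated wells by that in vehicle wells. Lung cancer cell lines were seeded in 1536-well plates, dosed by pin tool the next day, and fixed and stained after 5 days in one step with final 0.05% Triton X-100, 1% formaldehyde and 1 ug/ml Hoechst. Dosing was a single drug or a fixed anchor-drug dose plus five library-drug doses (not always all listed) in √10 steps, and values are medians of duplicate plates imaged at 4×.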

Veliparib + Decitabine = compound: C[C@]1(c2nc3c(C(N)=O)cccc3[nH]2)CCCN1 [Veliparib] + Nc1ncn([C@H]2C[C@H](O)[C@@H](CO)O2)c(=O)n1 [Decitabine] (partner 2 µM)
Method in brief: as §1

[1] = compound: COC1=CC=C(C=C1)CN2C=CC3=C2C=C(C=C3)C(=O)NO + Nc1ncn([C@H]2C[C@H](O)[C@@H](CO)O2)c(=O)n1 [Decitabine] (partner 2 µM)
Method in brief: as §1

[2] = compound: COC1=CC=C(C=C1)CN2C=CC3=C2C=C(C=C3)C(=O)NO + COc1cc2c(Oc3ccc(NC(=O)C4(C(=O)Nc5ccc(F)cc5)CC4)cc3F)ccnc2cc1OCCCN1CCOCC1 [Foretinib] (partner 0.25 µM)
Method in brief: as §1

Cell Line	relative viability (Veliparib + Navitoclax; first compound 0.02 µM)	relative viability (Veliparib + Navitoclax; first compound 0.06325 µM)	relative viability (Veliparib + Navitoclax; first compound 0.2 µM)	relative viability (Veliparib + Navitoclax; first compound 0.6325 µM)	relative viability (Veliparib + Navitoclax; first compound 2 µM)	relative viability (Veliparib + Decitabine; first compound 0.06325 µM)	relative viability (Veliparib + Decitabine; first compound 0.2 µM)	relative viability (Veliparib + Decitabine; first compound 0.6325 µM)	relative viability (Veliparib + Decitabine; first compound 2 µM)	relative viability ([1]; first compound 0.253 µM)	relative viability ([1]; first compound 0.8 µM)	relative viability ([1]; first compound 2.53 µM)	relative viability ([1]; first compound 8 µM)	relative viability ([2]; first compound 0.253 µM)	relative viability ([2]; first compound 0.8 µM)	relative viability ([2]; first compound 2.53 µM)	relative viability ([2]; first compound 8 µM)	relative viability (Veliparib + Decitabine; first compound 0.02 µM)	relative viability ([1]; first compound 0.08 µM)	relative viability ([2]; first compound 0.08 µM)
NCI-H1734	0.811	0.807	0.76	0.745	0.866	0.374	0.389	0.33	0.35	0.507	0.527	0.534	0.48	0.919	0.852	0.897	0.863			
NCI-H1755	1.02	0.946	0.939	0.925	0.967	0.709	0.629	0.595	0.707	0.737	0.64	0.743	0.683	1.01	0.915	0.941	0.946	0.675	0.632	0.892
NCI-H1793	0.435	0.602	0.424	0.376	0.396	0.47	0.445	0.429	0.424	0.678	0.592	0.662	0.286	0.732	0.63	0.656	0.63	0.511		
NCI-H1915	0.766	0.759	0.706	0.703	0.67	0.243	0.267	0.242	0.266	0.284	0.259	0.275	0.262	1.1	1.15	1.07	1.09	0.23	0.239	1.07
NCI-H1944	0.99	0.996	0.929	0.907	0.899	0.398	0.353	0.41	0.407	0.431	0.384	0.456	0.406	0.874	0.853	0.887	0.912	0.408		
NCI-H1975	1.07	1.14	1.22	0.942	0.981	0.447	0.362	0.307	0.328	0.364	0.443	0.456	0.388	1.14	0.934	0.968	0.926	0.392	0.349	0.931
NCI-H1993	0.939	0.898	1.07	0.902	0.959	0.526	0.614	0.541	0.567	0.599	0.526	0.675	0.613	0.818	0.836	0.892	0.777		0.602	0.552
NCI-H2009	1.22	1.07	1.2	1.1	1.31	0.37	0.366	0.329	0.361	0.352	0.37	0.36	0.365	1.3	1.17	1.27	1.24	0.344	0.331	0.931
NCI-H2023	1.04	0.948	0.922	0.926	0.943	0.152	0.172	0.141	0.13	0.234	0.272	0.244	0.173	0.899	0.778	0.697	0.722	0.215	0.201	0.489
NCI-H2085	1.13	0.984	1.15	0.932	1.11	0.453	0.486	0.48	0.498	0.571	0.639	0.593	0.549	0.979	1.12	0.84	0.991	0.519	0.561	0.906
NCI-H2087	0.883	0.821	0.849	0.863	0.952	0.244	0.237	0.2	0.174	0.295	0.288	0.319	0.192	1.15	1.17	1.03	0.962	0.255	0.25	0.659
NCI-H2126	0.928	0.803	0.861	0.749	0.817	0.561	0.538	0.545	0.559	0.535	0.578	0.585	0.621	1.22	1.15	1.2	1.26	0.575	0.574	1.14
NCI-H2170	0.544	0.531	0.597	0.618	0.606	0.436	0.378	0.389	0.381	0.514	0.459	0.455	0.43	0.961	0.994	1.03	1.02	0.405	0.494	0.978
NCI-H2347	0.794	0.775	0.724	0.695	0.729	0.556	0.616	0.582	0.587	0.691	0.681	0.61	0.577	0.527	0.991	0.775	0.575	0.625	0.612	
NCI-H2405		0.734	0.847	0.833	0.69		0.653	0.663	0.693		0.791	0.752	0.66	1.06	1.07	1.09	1.02	0.742	0.516	1.01
NCI-H3122	0.982	0.998	0.998	1	1.01	0.386	0.361	0.326	0.395	0.479	0.484	0.468	0.386	1	0.913	0.993	0.947	0.393	0.467	0.942
PC-3 [JPC-3]	0.742	0.77	0.801	0.749	0.734		0.85	0.763	0.741		0.775	0.833	0.832	1.04	1.09	1.08	0.962	0.766	0.764	1
PC-14	0.991	1.05	0.937	0.895	0.898	0.141	0.135	0.12	0.109	0.259	0.198	0.223	0.244	0.917	0.991	1.04	0.996	0.155	0.212	0.701
RERF-LC-KJ	1.05		1	0.852	0.754	0.631	0.607	0.72	0.674	0.675	0.645	0.738	0.599	0.862	0.915	0.947	0.917	0.658	0.74	0.639
SK-LU-1	0.985	1.05	0.959	0.804	0.793	0.663	0.58	0.583	0.485	0.616	0.634	0.753	0.531	0.766	0.799	0.86	0.74	0.634	0.611	0.756
SK-MES-1	1.27	1.16	1.3	1.06	1.26	0.293	0.341	0.324	0.337	0.377	0.436	0.369	0.343	0.929	0.927	0.98	0.927	0.364	0.397	1.17
SW 1573	1.02	0.934	1.1	0.736	0.93	0.289	0.287	0.361	0.298	0.525	0.59	0.471	0.258	0.877	0.865	0.751	0.694	0.29		
UMC-11	0.345	0.312	0.369	0.324	0.331	0.568	0.476	0.444	0.389	0.369	0.595	0.575	0.509	1.21	1.02	1.05	1	0.568		

Source: the supplement of paper PMC10307832
